ChEMBL document CHEMBL4376828, “Small-Molecule Inhibitors of Necroptosis: Current Status and Perspectives” (J Med Chem, 2020)

Key:
HT-29 = test: Anti-neprotic activity in human HT-29 cells assessed as reduction in TSZ-induced necroptosis incubated for 24 hrs by cell titer glo-based luminescence assay; assay type: functional; settings: HT-29, 24 h
[1] = molecular target: T1, Receptor-interacting serine/threonine-protein kinase 1 (Homo sapiens, UniProt Q13546); test: Inhibition of RIPK1 (unknown origin)
T1 sequence (Q13546 whole entry): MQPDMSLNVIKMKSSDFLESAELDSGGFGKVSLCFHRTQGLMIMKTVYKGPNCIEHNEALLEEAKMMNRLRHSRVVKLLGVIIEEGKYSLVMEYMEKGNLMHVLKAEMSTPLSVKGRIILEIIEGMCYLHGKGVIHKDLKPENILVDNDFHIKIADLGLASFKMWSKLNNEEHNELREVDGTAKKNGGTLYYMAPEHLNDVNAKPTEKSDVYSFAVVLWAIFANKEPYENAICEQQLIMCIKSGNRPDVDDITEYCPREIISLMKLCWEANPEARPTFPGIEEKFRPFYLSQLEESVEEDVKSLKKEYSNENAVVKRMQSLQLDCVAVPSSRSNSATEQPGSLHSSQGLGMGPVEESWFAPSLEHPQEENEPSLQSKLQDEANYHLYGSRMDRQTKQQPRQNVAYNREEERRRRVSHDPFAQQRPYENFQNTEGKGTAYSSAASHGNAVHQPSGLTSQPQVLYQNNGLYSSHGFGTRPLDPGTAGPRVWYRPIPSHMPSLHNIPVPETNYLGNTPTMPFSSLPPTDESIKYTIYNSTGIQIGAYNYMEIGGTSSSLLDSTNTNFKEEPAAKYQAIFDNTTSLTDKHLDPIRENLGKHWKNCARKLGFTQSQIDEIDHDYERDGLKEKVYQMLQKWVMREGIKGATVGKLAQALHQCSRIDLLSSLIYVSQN

[2] = molecular target: T1, Receptor-interacting serine/threonine-protein kinase 1; test: Inhibition of recombinant human GST-tagged RIPK1 (1 to 479 residues) incubated for 4 hrs by ADP-Glo assay
L929 = test: Anti-neprotic activity in mouse L929 cells assessed as reduction in TNF-induced necroptosis and measured every 1 hr by SYTOX Green dye based fluorescence assay; assay type: functional, cell-based; settings: L929, 1 h
MEF = test: Anti-neprotic activity in mouse MEF cells assessed as reduction in TNF-induced necroptosis and measured every 1 hr in presence of z-VAD by SYTOX Green dye based fluorescence assay; assay type: functional, cell-based
Mus musculus [3] = test: Antiinflammatory Activity in C57BL/6 mouse TNFalpha-induced mouse model of SIRS assessed as reduction in TNF-induced body temperature at 0.124 mg/kg, iv pretreated for 15 mins followed by TNFalpha-stimulation and measured up to 4 days by thermometric method relative to control; assay type: functional; parameters: scale not given: the % may be the effect or the level left
Jurkat = test: Anti-neprotic activity in human Jurkat cells FADD defient assessed as reduction in TNFalpha-induced necroptosis preincubated for 30 mins followed by addition of TNFalpha-stimulation and further incubated for over night by Cell Titer Glo assay; assay type: functional, cell-based
[4] = molecular target: T2, Receptor-interacting serine/threonine-protein kinase 1 (Homo sapiens) (UniProt Q13546)
T2 sequence (whole entry): T1 sequence (Q13546 whole entry)

[5] = molecular target: T3, Receptor-interacting serine/threonine-protein kinase 3 (Homo sapiens, UniProt Q9Y572); test: Inhibition of recombinant RIPK3 (unknown origin) using MBP as substrate preincubated for 15 mins followed by addition of MBP and measured after 120 min ADP-Glo kinase assay
T3 sequence (Q9Y572 whole entry): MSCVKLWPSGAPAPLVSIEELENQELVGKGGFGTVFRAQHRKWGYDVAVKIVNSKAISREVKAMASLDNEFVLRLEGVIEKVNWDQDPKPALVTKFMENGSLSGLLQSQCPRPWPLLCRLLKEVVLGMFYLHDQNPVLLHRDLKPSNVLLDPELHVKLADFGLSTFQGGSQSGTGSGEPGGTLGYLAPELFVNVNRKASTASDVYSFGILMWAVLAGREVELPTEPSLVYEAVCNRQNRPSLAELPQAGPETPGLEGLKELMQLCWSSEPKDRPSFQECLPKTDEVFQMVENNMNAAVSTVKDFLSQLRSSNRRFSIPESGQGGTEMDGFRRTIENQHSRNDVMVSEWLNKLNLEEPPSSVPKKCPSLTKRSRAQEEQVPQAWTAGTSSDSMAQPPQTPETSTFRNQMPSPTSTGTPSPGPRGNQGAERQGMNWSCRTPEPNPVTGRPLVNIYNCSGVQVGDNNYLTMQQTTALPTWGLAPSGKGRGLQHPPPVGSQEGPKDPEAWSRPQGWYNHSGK

Mus musculus [6] = test: Antiinflammatory Activity in C57BL/6 mouse TNFalpha-induced mouse model of SIRS at 30 mg/kg, ip pretreated for 15 mins followed by TNFalpha-stimulation and measured after 72 hrs relative to control; assay type: functional
[7] = molecular target: T3, Receptor-interacting serine/threonine-protein kinase 3; test: Inhibition of human full length N-terminal GST-tagged RIPK3 expressed in baculovirus infected sf9 insect cells assessed as reduction in MBP phosphorylation using MBP as substrate by kinase-Glo luminescence assay
[8] = molecular target: T3, Receptor-interacting serine/threonine-protein kinase 3; test: Inhibition of human RIPK3 using MBP as substrate by [gamma33-ATP] based radiometric assay
[9] = molecular target: T4, Receptor-interacting serine/threonine-protein kinase 2 (Homo sapiens, UniProt O43353); test: Inhibition of human RIPK2 using MBP as substrate by [gamma33-ATP] based radiometric assay
T4 sequence (O43353 whole entry): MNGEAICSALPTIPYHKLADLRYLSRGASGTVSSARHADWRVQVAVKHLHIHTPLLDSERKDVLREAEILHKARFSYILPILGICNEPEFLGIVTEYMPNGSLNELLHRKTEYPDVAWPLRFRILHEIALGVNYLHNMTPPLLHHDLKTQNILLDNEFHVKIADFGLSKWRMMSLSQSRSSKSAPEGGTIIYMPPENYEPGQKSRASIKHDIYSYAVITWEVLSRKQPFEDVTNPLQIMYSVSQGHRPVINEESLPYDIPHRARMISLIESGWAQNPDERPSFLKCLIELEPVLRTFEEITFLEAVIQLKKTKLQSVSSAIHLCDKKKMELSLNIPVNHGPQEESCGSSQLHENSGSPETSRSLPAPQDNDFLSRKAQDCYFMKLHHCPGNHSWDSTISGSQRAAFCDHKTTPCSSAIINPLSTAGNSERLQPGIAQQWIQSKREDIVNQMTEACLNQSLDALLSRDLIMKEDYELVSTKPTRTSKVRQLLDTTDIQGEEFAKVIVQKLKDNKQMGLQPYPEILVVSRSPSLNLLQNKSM

[10] = molecular target: T5, Dual serine/threonine and tyrosine protein kinase (Homo sapiens, UniProt Q6XUX3); test: Inhibition of human RIPK5 using MBP as substrate by [gamma33-ATP] based radiometric assay
T5 sequence (Q6XUX3 whole entry): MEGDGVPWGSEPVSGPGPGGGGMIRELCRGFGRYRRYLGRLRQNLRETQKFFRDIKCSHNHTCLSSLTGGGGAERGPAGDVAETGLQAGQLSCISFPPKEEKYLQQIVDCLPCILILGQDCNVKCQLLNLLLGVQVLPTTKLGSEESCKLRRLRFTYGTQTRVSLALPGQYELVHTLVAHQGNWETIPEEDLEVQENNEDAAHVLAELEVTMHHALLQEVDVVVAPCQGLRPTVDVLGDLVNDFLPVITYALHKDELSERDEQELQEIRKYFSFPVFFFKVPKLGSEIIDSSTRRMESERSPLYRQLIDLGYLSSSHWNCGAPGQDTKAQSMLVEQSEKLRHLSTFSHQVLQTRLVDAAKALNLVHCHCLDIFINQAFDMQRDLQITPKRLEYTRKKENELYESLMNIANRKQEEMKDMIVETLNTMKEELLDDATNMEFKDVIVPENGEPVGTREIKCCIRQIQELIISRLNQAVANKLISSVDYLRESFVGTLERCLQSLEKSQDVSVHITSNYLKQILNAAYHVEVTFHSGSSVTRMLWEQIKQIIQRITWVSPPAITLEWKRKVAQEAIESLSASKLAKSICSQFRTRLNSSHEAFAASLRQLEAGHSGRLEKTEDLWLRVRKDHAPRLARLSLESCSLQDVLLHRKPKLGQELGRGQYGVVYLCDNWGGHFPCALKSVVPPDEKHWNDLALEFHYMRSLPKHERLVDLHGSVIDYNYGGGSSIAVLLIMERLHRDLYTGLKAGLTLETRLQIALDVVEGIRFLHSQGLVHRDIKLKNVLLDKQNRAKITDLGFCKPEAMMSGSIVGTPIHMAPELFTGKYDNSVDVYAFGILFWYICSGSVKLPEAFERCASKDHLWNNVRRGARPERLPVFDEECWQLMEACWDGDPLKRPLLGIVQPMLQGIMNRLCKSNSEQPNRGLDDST

[11] = molecular target: T1, Receptor-interacting serine/threonine-protein kinase 1; test: Inhibition of human RIPK1 using MBP as substrate by [gamma33-ATP] based radiometric assay
[12] = molecular target: T6, Indoleamine 2,3-dioxygenase 1 (Homo sapiens, UniProt P14902); test: Inhibition of recombinant human IDO using L-Trp as substrate incubated for 60 mins
T6 sequence (P14902 whole entry, the tested form may be a part): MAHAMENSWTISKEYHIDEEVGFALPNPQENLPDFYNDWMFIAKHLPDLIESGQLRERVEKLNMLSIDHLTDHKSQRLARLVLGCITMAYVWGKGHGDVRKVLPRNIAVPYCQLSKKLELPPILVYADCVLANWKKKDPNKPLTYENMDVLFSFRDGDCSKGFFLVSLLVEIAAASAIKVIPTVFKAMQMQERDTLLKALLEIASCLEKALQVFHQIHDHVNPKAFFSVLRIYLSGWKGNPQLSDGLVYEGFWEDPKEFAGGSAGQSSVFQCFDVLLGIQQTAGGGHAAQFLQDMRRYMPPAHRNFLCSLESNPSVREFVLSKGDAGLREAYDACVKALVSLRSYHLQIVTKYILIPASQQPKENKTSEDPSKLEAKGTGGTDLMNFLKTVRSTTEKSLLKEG

[13] = molecular target: T4, Receptor-interacting serine/threonine-protein kinase 2; test: Inhibition of recombinant human His-tagged RIPK2 (8 to 317 residues) incubated for 1 hr by ADP-Glo assay
[14] = molecular target: Tyrosine-protein kinase ABL1 (Homo sapiens, UniProt P00519); test: Inhibition of Abl (unknown origin) incubated for 1 hr by ADP-Glo assay
Chain of Tyrosine-protein kinase ABL1 (P00519 whole entry): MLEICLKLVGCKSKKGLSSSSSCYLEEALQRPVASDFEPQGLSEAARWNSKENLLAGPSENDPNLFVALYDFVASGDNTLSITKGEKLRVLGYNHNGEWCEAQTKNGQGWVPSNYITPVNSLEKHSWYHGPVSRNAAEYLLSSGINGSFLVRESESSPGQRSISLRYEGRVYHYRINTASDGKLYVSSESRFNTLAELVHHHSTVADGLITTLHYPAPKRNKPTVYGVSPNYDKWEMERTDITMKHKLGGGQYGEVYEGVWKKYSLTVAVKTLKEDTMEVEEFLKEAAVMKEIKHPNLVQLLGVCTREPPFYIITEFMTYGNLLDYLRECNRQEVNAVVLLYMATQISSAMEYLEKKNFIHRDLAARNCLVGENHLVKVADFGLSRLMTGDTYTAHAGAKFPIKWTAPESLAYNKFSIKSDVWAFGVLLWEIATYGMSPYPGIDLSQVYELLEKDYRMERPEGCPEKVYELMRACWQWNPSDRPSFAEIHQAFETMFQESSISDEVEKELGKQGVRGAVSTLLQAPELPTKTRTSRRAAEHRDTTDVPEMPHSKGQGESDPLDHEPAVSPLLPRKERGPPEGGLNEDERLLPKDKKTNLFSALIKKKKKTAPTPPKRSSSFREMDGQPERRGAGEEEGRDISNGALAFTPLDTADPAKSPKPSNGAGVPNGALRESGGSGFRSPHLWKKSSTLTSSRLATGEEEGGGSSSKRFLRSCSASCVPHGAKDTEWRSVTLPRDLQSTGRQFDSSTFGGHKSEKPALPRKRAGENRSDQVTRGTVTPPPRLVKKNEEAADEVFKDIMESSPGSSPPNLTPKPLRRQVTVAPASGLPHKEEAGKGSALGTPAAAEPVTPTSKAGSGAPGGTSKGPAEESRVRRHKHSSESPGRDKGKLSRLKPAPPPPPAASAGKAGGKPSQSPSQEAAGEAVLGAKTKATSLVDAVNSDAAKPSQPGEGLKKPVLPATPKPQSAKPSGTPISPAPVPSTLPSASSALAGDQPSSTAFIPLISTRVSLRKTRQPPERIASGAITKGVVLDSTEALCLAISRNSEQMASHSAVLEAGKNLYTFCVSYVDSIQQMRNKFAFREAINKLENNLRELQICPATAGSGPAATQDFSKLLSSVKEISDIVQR

Mus musculus [15] = test: Antiinflammatory Activity in C57BL/6 mouse TNFalpha-induced mouse model of SIRS assessed as reduction in TNF-induced body temperature at 0.226 mg/kg, iv pretreated for 15 mins followed by TNFalpha-stimulation and measured up to 4 days by thermometric method relative to control; assay type: functional; parameters: scale not given: the % may be the effect or the level left
[16] = molecular target: T7, Receptor-interacting serine/threonine-protein kinase 1 (Mus musculus, UniProt Q60855); test: Inhibition of mouse RIPK1; settings: read-out: Ki(app)
T7 sequence (Q60855 whole entry): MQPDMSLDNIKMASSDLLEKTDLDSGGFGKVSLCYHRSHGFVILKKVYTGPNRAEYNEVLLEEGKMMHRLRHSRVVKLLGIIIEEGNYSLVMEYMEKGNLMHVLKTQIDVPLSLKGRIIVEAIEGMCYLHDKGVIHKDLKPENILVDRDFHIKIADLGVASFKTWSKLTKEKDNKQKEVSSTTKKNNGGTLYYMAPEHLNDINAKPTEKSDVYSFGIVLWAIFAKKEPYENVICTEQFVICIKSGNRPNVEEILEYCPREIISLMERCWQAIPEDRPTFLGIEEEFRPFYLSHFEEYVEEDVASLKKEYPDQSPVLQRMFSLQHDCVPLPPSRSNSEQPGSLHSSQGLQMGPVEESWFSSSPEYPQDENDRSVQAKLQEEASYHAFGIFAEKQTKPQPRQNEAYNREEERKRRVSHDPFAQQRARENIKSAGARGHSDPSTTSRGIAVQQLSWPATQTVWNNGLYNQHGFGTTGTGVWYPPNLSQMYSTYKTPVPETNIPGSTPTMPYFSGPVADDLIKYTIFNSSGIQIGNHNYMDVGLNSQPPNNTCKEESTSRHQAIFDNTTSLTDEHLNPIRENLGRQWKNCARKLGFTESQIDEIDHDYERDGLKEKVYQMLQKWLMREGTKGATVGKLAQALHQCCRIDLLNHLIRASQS

Mus musculus [17] = test: Antiinflammatory activity in TNF-induced mouse model of SIRS assessed as reduction in TNF-induced body temperature at 5 mg/kg, po and measured after 2 to 4 hrs by infrared ear Thermometric method relative to control; assay type: functional; parameters: scale not given: the % may be the effect or the level left
[18] = molecular target: T1, Receptor-interacting serine/threonine-protein kinase 1; test: Inhibition of GSK657 binding to human RIPK1 (1 to 328) by fluorescence Polarization assay
[19] = molecular target: T1, Receptor-interacting serine/threonine-protein kinase 1; test: Inhibition of human RIPK1 by ADP-Glo assay
[20] = molecular target: T8, Mixed lineage kinase domain-like protein (Homo sapiens) (UniProt Q8NB16)
T8 sequence (whole entry): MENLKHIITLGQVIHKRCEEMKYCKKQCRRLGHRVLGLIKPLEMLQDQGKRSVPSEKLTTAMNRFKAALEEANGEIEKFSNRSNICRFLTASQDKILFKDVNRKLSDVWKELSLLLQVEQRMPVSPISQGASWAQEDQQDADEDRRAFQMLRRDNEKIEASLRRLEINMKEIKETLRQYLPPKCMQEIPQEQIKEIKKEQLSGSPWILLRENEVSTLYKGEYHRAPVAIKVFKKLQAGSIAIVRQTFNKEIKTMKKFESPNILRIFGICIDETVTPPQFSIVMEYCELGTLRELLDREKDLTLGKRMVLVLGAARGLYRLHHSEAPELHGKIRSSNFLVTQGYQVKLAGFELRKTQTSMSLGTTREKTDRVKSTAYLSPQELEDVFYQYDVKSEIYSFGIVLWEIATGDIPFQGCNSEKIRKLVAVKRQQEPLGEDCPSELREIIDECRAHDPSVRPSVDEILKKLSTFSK

[21] = molecular target: T6, Indoleamine 2,3-dioxygenase 1; test: Inhibition of IDO (unknown origin)
Fibroblast = test: Anti-neprotic activity in mouse fibroblasts cells; assay type: functional, cell-based

SMILES: Cn1c(=O)c2c(nc(S(C)(=O)=O)n2C)n(C)c1=O
- IC50 (HT-29): 0.39 µM

SMILES: COc1nccnc1NS(=O)(=O)c1ccc(NC(=O)/C=C/c2ccc([N+](=O)[O-])s2)cc1
- IC50 (HT-29): < 0.2 µM

SMILES: Cn1c(=O)c2c(nc(S(C)(=O)=O)n2C)n(CC#Cc2cccc(O)c2)c1=O
- IC50 (HT-29): 0.002 µM

SMILES: Cc1ccc(O)cc1Nc1ccnc2cc(-c3ccccn3)ccc12
- IC50 [1]: 0.0736 µM

SMILES: Cn1cc(-c2ccc3c(c2F)CCN3C(=O)Cc2cccc(C(F)(F)F)n2)c2c(N)ncnc21
- IC50 [2]: 0.069 µM
- IC50 (L929): 0.0001 µM
- IC50 (MEF): 0.004 µM
- Activity (Mus musculus [3]): 100%

SMILES: Nc1nccnc1C(=O)O[C@@H](C(=O)Nc1ccc(F)cc1)c1ccccc1
- IC50 (Jurkat): > 40 µM
- ΔTm [4]: -0.15 °C

SMILES: CC(=O)Nc1nc2ccc(-c3cnc(Cl)c(CC(=O)Cc4ccccc4)c3)cc2s1
- IC50 [5]: > 1 µM
- Activity (Mus musculus [6]): 90%

SMILES: CC(C)(C)c1nc(-c2cccc(NS(=O)(=O)c3c(F)cccc3F)c2F)c(-c2ccnc(N)n2)s1 [DABRAFENIB]
- IC50 [7]: 0.25 µM
- IC50 [8]: 0.002 µM
- IC50 [9]: 0.077 µM
- IC50 [10]: 29.4 µM
- IC50 [11]: 53.2 µM

SMILES: O=C1NC(=S)NC1Cc1c[nH]c2ccccc12 (centres undefined)
- IC50 [12]: 0.11 µM

SMILES: Cc1ccc(CCCCN2C(=O)N[C@H](Cc3c[nH]c4c(Cl)cccc34)C2=O)cc1C#Cc1cnc2cccnn12
- IC50 [13]: 1.19 µM
- IC50 [14]: > 1 µM

SMILES: Cn1cc(-c2ccc3c(c2)CCN3C(=O)Cc2cccc(C(F)(F)F)c2)c2c(N)ncnc21
- IC50 (L929): 0.0004 µM
- Activity (Mus musculus [15]): 100%

SMILES: COc1ccc2c(c1)CC[C@H](NC(=O)c1nc3n(n1)[C@H](c1ccccc1)CC3)C(=O)N2C
- Ki [16]: 0.189 µM
- Activity (Mus musculus [17]): 100%

SMILES: Cc1cc(-c2cnc(N)c3c(-c4ccc5scnc5c4)csc23)n(C)n1
- IC50 [18]: 0.0086 µM
- IC50 [19]: 0.0065 µM

SMILES: C[C@@H](Oc1cc(-c2cnn(C3CCNCC3)c2)cnc1N)c1c(Cl)ccc(F)c1Cl [CRIZOTINIB]
- IC50 (Jurkat): > 40 µM
- ΔTm [20]: 5.63 °C
- ΔTm [4]: 0.75 °C

SMILES: CN1C(=O)C(Cc2c[nH]c3ccccc23)NC1=S (centres undefined) [NECROSTATIN]
- IC50 [21]: 100 µM
- IC50 [12]: 0.11 µM

SMILES: CN(c1ccc(NC(=O)Nc2ccc(OC(F)(F)F)cc2)cc1)c1ccnc(Nc2cccc(S(N)(=O)=O)c2)n1 [GW806742X]
- IC50 (Fibroblast): < 0.05 µM

SMILES: CNC(=O)c1ccc2c(c1)ncn2-c1ccc(CC(=O)OC(C)(C)C)cc1
- IC50 [18]: 0.0009 µM
- IC50 [19]: 0.0003 µM
